The test system of data set [1] is CYP 1A1. Put plainly: membrane (slot blot) and Northern blot assay of CYP450 mRNA in treated human hepatocytes. The format is cell-based. The conditions noted are these: 48 hours exposure, 3-MC 5 microM. The protocol:
(§1) Total RNA contents are measured on a UV spectrophotometer.
(§2) The labeled cDNA thus produced are then purified.

For data set [2], the system named is CYP 1A2. The description is as above. The format is cell-based. The settings on record: 48 hours exposure, 3-MC 5 microM. The method, then:
as §1, §2

In data set [3] the test system is CYP 3A4. The method, then: (§3) 600 microliters of solution D (pH7; guanadium thiocyanate 4M; sodium citrate 25 mM; sarcosyl 0.5%; and 1.4 ml of beta-mercaptoethanol per 200 ml of solution D) have been added to each well so as to induce cell lysis. […] Are then successively added: 0.1 volume of sodium acetate (2M, pH4), 1 volume of water-saturated phenol and 0.2 volume of chloroform/isoamylalcohol (49/1, V/V). At each step, the suspension is vigorously vortexed, then left to cool on ice for 15-20 min, and centrifigated for 30 min at 4000 g and 4° C. An equal volume of isopropanol is added after removal of the aqueous phase.
(§4) RNA are then precipitated (1 hour at −20° C.) and centrifuged for 30 min at 4000 g and 4° C. The supernatant is removed and the pellets are re-suspended in 2.7 ml of solution D. 2.7 ml of isopropanol are then added to the suspension, and the RNA are again precipitated (1 hour at −20° C.) and centrifugated. The pellets are washed with 5.4 ml of 70% ethanol. After a final centrifugation and removal of the supernatant, the pellets are air-dried, and re-suspended in sterile water containing DEPC (DEPC 1/1000 in water, then sterilization). Total RNA contents are measured on a UV spectrophotometer.
(§5) 25 micrograms of total RNA have been placed into contact with oligo-dT (0.4 mM final of an equimolar composition of oligod(T) and of three oligosd(T) which have an A or a G or a C in 3′), and heated to 70° C. for 10 min, then incubated for 5 min on ice so as to allow oligo-dT hybridization on polyA RNA.
(§6) The labeled cDNA are then hybridized with the filters (48 hours at 42° C.). […] Filters have then been washed with SSC 2× buffer without SDS for 30 min at 42° C., and exposed overnight in a phosphorimager cassette.
(§7) For comparison purposes, Northern blots comprising 10 micrograms of total RNA have been incubated for hybridization with each cDNA probe separately. Quantifications are achieved by measuring band intensities per 18S quantity (as evaluated by ethidium bromide coloration).

For data set [4], the system named is CYP450. The settings on record: known inducers used for validation; cited from earlier work.
For data set [5], the system named is CYP 3A5. The settings on record: hepatocytes. The protocol: as §3, §4, §5, §6, §7
Data set [6] relates to CYP 3A7. The conditions noted are these: hepatocytes. The protocol:
as §3, §4, §5, §6, §7

Data set [7] deals with CYP 14 sub-family. The conditions noted are these: human hepatocytes, 48 hours exposure; PB 1 microM, RIF 50 microM.
Protocol: RNA are then precipitated (1 hour at −20° C.) and centrifuged for 30 min at 4000 g and 4° C. The supernatant is removed and the pellets are re-suspended in 2.7 ml of solution D. 2.7 ml of isopropanol are then added to the suspension, and the RNA are again precipitated (1 hour at −20° C.) and centrifugated. The pellets are washed with 5.4 ml of 70% ethanol. After a final centrifugation and removal of the supernatant, the pellets are air-dried, and re-suspended in sterile water containing DEPC (DEPC 1/1000 in water, then sterilization). Total RNA contents are measured on a UV spectrophotometer. […]
Data set [8] relates to CYP450 isoforms. Kind of data set: specificity assays of the cDNA probes (hybridization on filters and Northern blot). Type of data set: binding, human. The settings on record: 32P-labeled probe, filters with plasmidic DNA / 3′-NTR, Northern blot of total RNA. The text has this: On nylon® membrane filters, the following DNA sequences were deposited:
either the sequences obtained by amplification of 50 nanograms of plasmidic DNA as described in the above example 1, followed by purification and UV spectrophotometry dosage (Power Wave X2, Biotek instruments®, St Quentin en Yvelines, France),
or plasmidic DNA (50 nanograms of linearized plasmid containing a probe inserted therein, or of empty pUC plasmid) obtained from the clones described in the above example 1 after linearization by Bam H1 (20 IU for 20 micrograms of plasmidic DNA, 1 hour at 37° C.).
The amplified sequences as well as the plasmidic ones were denatured by EDTA (final concentration of 10 mM, 10 min at 65° C.) and then by NaOH (final concentration of 0.1 M, 30 min at ambient temperature), and neutralized by SSC6× buffer, before being deposited onto a nylon® membrane (Biosupport®, Pall, Portsmouth, UK). Binding to the membrane was achieved by exposure to UV for 4 min and heating at 80° C. for 2 hours.
Three types of specificity assays have been performed:
intra-probe specificity: each cDNA probe (SEQ ID NO: 1-14) has been labeled with ^32P following Megaprime® DNA Labelling System (Amersham Pharmacia Biotech, Elancourt, France) and according to random primer polymerization. […]

Where two headings read alike, the source gives them in different places.

For the molecule `Cc1ccc2cc3c(ccc4ccccc43)c3c2c1CC3` [3-methylcholanthrene], the “change in CYP 1A1 (hybridization signal of reverse-transcribed total RNA)” value in data set [1] is given as “increase”. The “change in CYP 1A2 (hybridization signal of reverse-transcribed total RNA)” value in data set [2] is listed as “also but more weakly”. Moreover, in data set [3] (human hepatocytes, 48 hours exposure, 3-MC 5 microM, PB 1 microM, RIF 50 microM), the “change in CYP 3A4 (hybridization signal of reverse-transcribed total RNA)” value is listed as “decrease”. The CYP450 induced result in data set [4] was “CYP 1A”.

In the case of `CCC1(c2ccccc2)C(=O)NC(=O)NC1=O` [phenobarbital, Phenobarbital], in data set [3] (hepatocytes), the “change in CYP 3A4 (hybridization signal of reverse-transcribed total RNA)” value is recorded as “strong decrease”. The “variation of CYP 3A5 (hybridization signal)” value in data set [5] is “no variation”. Also, in data set [6], the “variation of CYP 3A7 (hybridization signal)” value was “no variation”. Further, the “variation of CYP 14 sub-family (hybridization signal)” value in data set [7] was “no variation”. Moreover, the CYP450 induced entry in data set [4] is “CYP 3A”.

B1: SEQ ID NO: 8: DNA molecule which hybridizes to CYP 2C9 (nucleic acid, listed as Homo sapiens)
DNA: TTTGTGTATTATAATTCAAAGGCATTTCTTTTCTGCATGTTCTAAATAAAAAGCATTATTATTTGCTG
modifications: DNA, backbone and methylation of C not given here
notes: DNA molecule which hybridizes to CYP 2C9
With B1, in data set [8], the “hybridization specificity of the probe (cross-hybridization with other CYP450 isoforms, empty plasmid, other RNA from human hepatocytes, 3′-NTR)” value is reported as “only hybridizes to its CYP 2C9 target”.

B2: SEQ ID NO: 9: DNA molecule which hybridizes to CYP 2C19 (nucleic acid, listed as Homo sapiens)
DNA: TTTCACTATCTGTGATGCTTCTTCTGACCCGTCATCTCACATTTTCCCTTCCCCCAAGATCTAGTGAACATTCAGCCTCCATTAAAAAAGTTTCACTGTGCAAATATATCTGCTATTCCCCATACTCTATAATAGTTACATTGAGT
For B2, in data set [8], the “hybridization specificity of the probe (cross-hybridization with other CYP450 isoforms, empty plasmid, other RNA from human hepatocytes, 3′-NTR)” value is “may hybridize in the 3′-NTR region of CYP 2C9”.

The values are drawn from patent US20040171015A1, “Cyp450-specific dna probes and primers, and biological applications thereof” (priority 2003, published 2004).
